Results from US20230257396A1, “MACROCYCLES AND THEIR USE” (BLOSSOMHILL THERAPEUTICS, INC., priority 2020, published 2023).

Tests used:
Experiment in all cases: KINOMEscan kinase binding assay (Eurofins/DiscoveRx), % Ctrl
Conditions in all cases: 1 μM
[1] = molecular target: T1, kinases (Homo sapiens, UniProt P00519, Q252H)
T1 construct: purchased Eurofins/DiscoveRx; host or cells: E. coli BL21-derived host (T7 phage display) for most kinases; HEK-293 for the rest
Summary of the method: (§1)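 Competition binding, 1 h RT: phage-tagged or HEK-293-expressed DNA-tagged kinase + immobilized ligand + compound. Eluate kinase by qPCR. % Ctrl = (test − positive ctrl)/(negative ctrl − positive ctrl) × 100; lower means stronger binding.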

[2] = molecular target: T2, kinases (Homo sapiens, UniProt P00519, T315I)
T2 construct: purchased Eurofins/DiscoveRx; host or cells: E. coli BL21-derived host (T7 phage display) for most kinases; HEK-293 for the rest
Summary of the method: as §1

[3] = molecular target: T3, kinases (Homo sapiens, UniProt P00533, G719C)
T3 construct: purchased Eurofins/DiscoveRx; host or cells: E. coli BL21-derived host (T7 phage display) for most kinases; HEK-293 for the rest
Summary of the method: as §1

[4] = molecular target: T4, kinases (Homo sapiens, UniProt P10721)
T4 construct: purchased Eurofins/DiscoveRx; host or cells: E. coli BL21-derived host (T7 phage display) for most kinases; HEK-293 for the rest
Summary of the method: as §1

[5] = molecular target: T5, kinases (Homo sapiens, UniProt P10721, T670I/V559D)
T5 construct: purchased Eurofins/DiscoveRx; host or cells: E. coli BL21-derived host (T7 phage display) for most kinases; HEK-293 for the rest
Summary of the method: as §1

[6] = molecular target: T6, kinases (Homo sapiens, UniProt P36888, N841I)
T6 construct: purchased Eurofins/DiscoveRx; host or cells: E. coli BL21-derived host (T7 phage display) for most kinases; HEK-293 for the rest
T6 sequence (P36888 27-993 N841I): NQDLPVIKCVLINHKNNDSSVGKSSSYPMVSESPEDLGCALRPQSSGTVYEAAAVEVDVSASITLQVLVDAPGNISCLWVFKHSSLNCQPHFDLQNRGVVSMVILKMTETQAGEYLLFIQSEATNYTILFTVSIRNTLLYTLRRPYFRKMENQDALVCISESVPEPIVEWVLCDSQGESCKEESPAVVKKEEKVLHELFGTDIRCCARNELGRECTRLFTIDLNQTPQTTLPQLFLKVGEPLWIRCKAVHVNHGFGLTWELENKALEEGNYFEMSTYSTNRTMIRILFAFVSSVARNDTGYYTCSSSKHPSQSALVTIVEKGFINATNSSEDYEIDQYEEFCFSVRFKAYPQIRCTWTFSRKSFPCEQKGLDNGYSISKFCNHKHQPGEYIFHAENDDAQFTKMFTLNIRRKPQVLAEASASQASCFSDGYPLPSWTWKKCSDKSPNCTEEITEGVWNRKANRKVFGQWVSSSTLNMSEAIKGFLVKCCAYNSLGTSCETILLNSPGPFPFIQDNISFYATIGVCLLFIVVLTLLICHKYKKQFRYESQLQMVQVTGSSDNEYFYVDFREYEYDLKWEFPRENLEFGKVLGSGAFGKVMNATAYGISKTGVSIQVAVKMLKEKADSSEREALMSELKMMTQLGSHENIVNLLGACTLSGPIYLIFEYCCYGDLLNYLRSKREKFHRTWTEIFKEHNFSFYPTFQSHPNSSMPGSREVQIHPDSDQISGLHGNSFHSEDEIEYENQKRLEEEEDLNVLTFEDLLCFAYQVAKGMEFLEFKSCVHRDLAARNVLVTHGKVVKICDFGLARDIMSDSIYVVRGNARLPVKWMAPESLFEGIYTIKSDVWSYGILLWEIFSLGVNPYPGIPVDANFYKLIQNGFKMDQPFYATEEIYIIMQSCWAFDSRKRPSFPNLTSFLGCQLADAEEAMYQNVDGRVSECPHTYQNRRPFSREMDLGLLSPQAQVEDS
Summary of the method: as §1

[7] = tested on: kinases
Summary of the method: as §1

T5 sequence (P10721 26-976 V559D/T670I): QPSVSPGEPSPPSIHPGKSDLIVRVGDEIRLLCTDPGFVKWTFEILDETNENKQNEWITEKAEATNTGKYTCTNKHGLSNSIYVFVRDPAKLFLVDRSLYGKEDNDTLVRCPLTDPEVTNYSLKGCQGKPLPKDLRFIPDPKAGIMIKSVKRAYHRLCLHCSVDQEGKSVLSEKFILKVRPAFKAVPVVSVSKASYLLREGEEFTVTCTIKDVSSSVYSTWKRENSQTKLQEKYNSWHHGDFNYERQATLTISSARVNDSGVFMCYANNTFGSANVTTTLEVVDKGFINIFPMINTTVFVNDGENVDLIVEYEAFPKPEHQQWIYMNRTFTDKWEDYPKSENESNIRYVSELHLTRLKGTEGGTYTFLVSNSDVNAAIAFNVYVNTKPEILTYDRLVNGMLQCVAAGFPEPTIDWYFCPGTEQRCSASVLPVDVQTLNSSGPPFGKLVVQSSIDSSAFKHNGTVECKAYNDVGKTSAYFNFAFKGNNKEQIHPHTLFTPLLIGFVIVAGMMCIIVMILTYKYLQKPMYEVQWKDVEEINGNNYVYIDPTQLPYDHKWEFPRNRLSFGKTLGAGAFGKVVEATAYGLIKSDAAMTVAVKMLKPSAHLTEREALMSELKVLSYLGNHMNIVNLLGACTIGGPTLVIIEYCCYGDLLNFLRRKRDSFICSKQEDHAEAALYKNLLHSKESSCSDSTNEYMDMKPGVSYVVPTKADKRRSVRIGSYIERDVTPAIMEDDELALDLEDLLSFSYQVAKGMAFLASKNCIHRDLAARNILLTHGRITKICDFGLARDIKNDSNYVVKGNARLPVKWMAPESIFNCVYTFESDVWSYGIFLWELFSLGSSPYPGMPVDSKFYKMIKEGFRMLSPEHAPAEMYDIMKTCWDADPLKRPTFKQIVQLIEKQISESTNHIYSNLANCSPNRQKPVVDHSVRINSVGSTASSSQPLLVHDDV
T4 sequence (P10721 26-976): as the sequence (P10721 26-976 V559D/T670I) above, with D534V, I645T counted along it

% Ctrl, ABL1(Q252H)-nonphosphorylated ([1]; ABL1(Q252H)-nonphosphorylated) [% Ctrl]	% Ctrl, ABL1(Q252H)-phosphorylated ([1]; ABL1(Q252H)-phosphorylated) [% Ctrl]	% Ctrl, ABL1(T315I)-nonphosphorylated ([2]; ABL1(T315I)-nonphosphorylated) [% Ctrl]	% Ctrl, ABL1(T315I)-phosphorylated ([2]; ABL1(T315I)-phosphorylated) [% Ctrl]	% Ctrl, EGFR(G719C) ([3]; EGFR(G719C)) [% Ctrl]	% Ctrl, KIT ([4]; KIT) [% Ctrl]	% Ctrl, KIT-autoinhibited ([4]; KIT-autoinhibited) [% Ctrl]	% Ctrl, KIT(V559D, T670I) ([5]; KIT(V559D, T670I)) [% Ctrl]	% Ctrl, FLT3(N841I) ([6]; FLT3(N841I)) [% Ctrl]	% Ctrl, EGFR(L747-E749del, A750P) ([7]; EGFR(L747-E749del, A750P)) [% Ctrl]	% Ctrl, EGFR(L747-S752del, P753S) ([7]; EGFR(L747-S752del, P753S)) [% Ctrl]	% Ctrl, EGFR(L747-T751del, Sins) ([7]; EGFR(L747-T751del, Sins)) [% Ctrl]	% Ctrl, FLT3(ITD) ([7]; FLT3(ITD)) [% Ctrl]	% Ctrl, FLT3(ITD, D835V) ([7]; FLT3(ITD, D835V)) [% Ctrl]	% Ctrl, FLT3(ITD, F691L) ([7]; FLT3(ITD, F691L)) [% Ctrl]	SMILES	other results
–	–	–	–	–	–	–	–	–	–	–	–	–	–	–	CN1CCOc2cc3c(cc2Cl)NC(=O)/C3=C\c2[nH]ccc2C(=O)N(C)CC1 [Ex. 164, [16a(17)Z]-19-chloro-2,5,8-trimethyl-5,6,7,8,9,10-hexahydro-12,14-(ethanediylidene)dipyrrolo[3,2-i:3′,4′-l][1,4,7]oxadiazacyclopentadecine-4,16(1H,15H)-dione]	% Ctrl, ABL1(Q252H)-nonphosphorylated ([1]; target ABL1(Q252H)-nonphosphorylated): 0.1 % Ctrl; % Ctrl, ABL1(Q252H)-phosphorylated ([1]; target ABL1(Q252H)-phosphorylated): 0 % Ctrl; % Ctrl, ABL1(T315I)-nonphosphorylated ([2]; target ABL1(T315I)-nonphosphorylated): 0.6 % Ctrl; % Ctrl, ABL1(T315I)-phosphorylated ([2]; target ABL1(T315I)-phosphorylated): 1.4 % Ctrl; % Ctrl, EGFR(G719C) ([3]; target EGFR(G719C)): 82 % Ctrl; % Ctrl, KIT ([4]; target KIT): 18 % Ctrl; % Ctrl, KIT-autoinhibited ([4]; target KIT-autoinhibited): 81 % Ctrl; % Ctrl, KIT(V559D, T670I) ([5]; target KIT(V559D, T670I)): 2.4 % Ctrl; % Ctrl, FLT3(N841I) ([6]; target FLT3(N841I)): 0 % Ctrl; % Ctrl, EGFR(L747-E749del, A750P) ([7]; target EGFR(L747-E749del, A750P)): 19 % Ctrl; % Ctrl, EGFR(L747-S752del, P753S) ([7]; target EGFR(L747-S752del, P753S)): 47 % Ctrl; % Ctrl, EGFR(L747-T751del, Sins) ([7]; target EGFR(L747-T751del, Sins)): 45 % Ctrl; % Ctrl, FLT3(ITD) ([7]; target FLT3(ITD)): 0.9 % Ctrl; % Ctrl, FLT3(ITD, D835V) ([7]; target FLT3(ITD, D835V)): 0.3 % Ctrl; % Ctrl, FLT3(ITD, F691L) ([7]; target FLT3(ITD, F691L)): 1 % Ctrl
0	0.05	0	0.65	90	89	80	62	0.35	26	40	43	2.2	0	6.2	Cc1cc2c([nH]1)/C=C1\C(=O)Nc3ccc(cc31)-c1c(C)n[nH]c1CNCCN(C)C2=O [Ex. 127, [3a(4)Z]-6,9,16-trimethyl-9,10,11,12,13,14-hexahydro-1,17-(ethanediylidene)pyrazolo[4,3-m]dipyrrolo[3,2-f:3′,4′-i][1,4]diazacyclopentadecine-3,8(2H,5H)-dione]	–
0	34	12	66	100	91	100	91	20	91	55	98	45	8.3	9.2	Cc1cc2c([nH]1)/C=C1\C(=O)Nc3ccc(cc31)O[C@@H](C)COCCN(C)C2=O [Ex. 92, [10S,16a(17)Z]-2,5,10-trimethyl-6,7,9,10-tetrahydro-1H-12,14-(ethanediylidene)dipyrrolo[3,2-i:3′,4′-l][1,4,7]dioxazacyclopentadecine-4,16(5H,15H)-dione]	–
97	100	100	100	71	100	100	100	75	92	100	67	91	100	100	Cc1cc2c([nH]1)/C=C1\C(=O)Nc3cnc(nc31)N(C)CCCOCCN(C)C2=O [Ex.71, [17a(18)Z]-2,5,12-trimethyl-6,7,9,10,11,12-hexahydro-1H-13,15-(azenometheno)dipyrrolo[3,2-f:3′,4′-i][1,4,11,13]oxatriazacyclohexadecine-4,17(5H,16H)-dione]	–
